Reference: ChEMBL document CHEMBL5058564, “EUbOPEN Chemogenomics Library 2 (Incucyte)” (2022)

What was measured:
Format in all cases: toxicity, cell-based
[1] = test system: Fibroblast; assay: Incucyte cell viability with human fibroblast; conditions: 10 µM, compound concentration 10 uM
[2] = test system: U2OS; assay: Incucyte cell viability with U2OS; conditions: human, 10 µM, compound concentration 10 uM
[3] = test system: HEK-293T; assay: Incucyte cell viability with HEK293T; conditions: human, 10 µM, compound concentration 10 uM
[4] = 0 h, replicate number 1, timepoint 0 hours
[5] = 6 h, replicate number 1, timepoint 6 hours
[6] = 6 h, replicate number 2, timepoint 6 hours
[7] = 12 h, replicate number 1, timepoint 12 hours
[8] = 12 h, replicate number 2, timepoint 12 hours
[9] = 18 h, replicate number 1, timepoint 18 hours
[10] = 18 h, replicate number 2, timepoint 18 hours
[11] = 24 h, replicate number 1, timepoint 24 hours
[12] = 24 h, replicate number 2, timepoint 24 hours
[13] = 0 h, replicate number 2, timepoint 0 hours
Also: unitless GR value; below 1 slowed growth and below 0 cell loss.

| SMILES | Growth Rate [1, 5] | Growth Rate [1, 6] | Growth Rate [1, 7] | Growth Rate [1, 8] | Growth Rate [1, 9] | Growth Rate [1, 10] | Growth Rate [1, 11] | Growth Rate [2, 4] | Growth Rate [2, 13] | Growth Rate [2, 5] | Growth Rate [2, 7] | Growth Rate [2, 9] | Growth Rate [2, 11] | Growth Rate [3, 5] | Growth Rate [3, 6] | Growth Rate [3, 7] | Growth Rate [3, 8] | Growth Rate [3, 9] | Growth Rate [3, 11] | Growth Rate [2, 10] | also measured |
| --- | --- | --- | --- | --- | --- | --- | --- | --- | --- | --- | --- | --- | --- | --- | --- | --- | --- | --- | --- | --- | --- |
| COc1cc(/C=C/C(=O)NCCn2c(C)cc3ccccc32)cc(OC)c1OC | 0.79 | 0.39 | 0.87 | 0.39 | 0.66 | 0.71 | 0.67 | -0.71 | -0.39 | 0.34 | 0.62 | 0.51 | 0.75 | 0.24 | 0.36 | 0.61 | 0.51 | 0.69 | 0.75 |  | Growth Rate [1, 4]: 0.86; Growth Rate [1, 12]: 0.73; Growth Rate [2, 6]: 0.73; Growth Rate [3, 10]: 0.55; Growth Rate [3, 12]: 0.76 |
| CN1CCN(c2nc3cc(C(F)(F)F)ccc3n3cccc23)CC1.O=C(O)/C=C\C(=O)O.O=C(O)/C=C\C(=O)O | 0.24 |  | 0.72 |  | 0.98 |  |  |  | -1 |  |  |  |  | 0.89 | 0.57 |  | 0.87 |  | 0.8 |  | Growth Rate [1, 4]: 0.87; Growth Rate [3, 10]: 0.7 |
| Cc1cc(NC(=O)NCCN2CCC(O)(Cc3ccccc3)CC2)c2ccccc2n1 [PALOSURAN] | -0.3 |  | 0.72 |  | 0.32 |  | 0.22 | 0.34 | 0.13 | 0.57 | 0.33 | 0.73 | 0.87 | 0.95 |  | 0.83 |  |  |  | 0.98 | Growth Rate [1, 13]: 0.27; Growth Rate [2, 6]: 0.73; Growth Rate [3, 4]: 0.55; Growth Rate [3, 13]: -1 |
| CN1CCC(C(=O)c2cccc(NC(=O)c3c(F)cc(F)cc3F)n2)CC1 |  | 0.9 | 0.6 |  | 0.86 | 0.96 | 0.59 |  | 0.68 | 0.94 |  |  |  | 0.24 |  | 0.74 |  | 0.81 | 0.93 |  | Growth Rate [1, 13]: 0.32; Growth Rate [1, 12]: 0.78; Growth Rate [3, 13]: -1 |
| CN(C)C/C=C/C(=O)Nc1ccc(C(=O)N2CCCC(Nc3ncc(Cl)c(-c4c[nH]c5ccccc45)n3)C2)cc1 (configuration not stated) | -0.96 | -0.55 | -0.75 | -0.33 | -0.7 | -0.1 | -0.55 | -0.56 | 0.12 | 0.53 | 0.51 | 0.27 | 0.09 | -0.75 | -0.93 | -0.58 | -0.66 | -0.42 | -0.27 | 0.26 | Growth Rate [1, 12]: -0.06; Growth Rate [2, 8]: 0.63; Growth Rate [2, 12]: 0.13; Growth Rate [3, 10]: -0.43; Growth Rate [3, 12]: -0.31 |
| CCN1/C(=C/C(C)=O)Sc2ccc(OC(C)=O)cc21 | -0.38 | -0.29 | 0.14 | 0.41 | 0.17 |  | 0.38 | -0.53 | -1 |  |  |  |  | 0.5 | 0.44 | 0.29 | 0.41 | 0.49 | 0.49 | 0.97 | Growth Rate [2, 8]: 0.89; Growth Rate [2, 12]: 0.93; Growth Rate [3, 4]: 0.98; Growth Rate [3, 13]: 0.37; Growth Rate [3, 10]: 0.37; Growth Rate [3, 12]: 0.53 |
| COCCCN1CCC(NC(=O)c2cc(Cl)c(N)c3c2OCC3)CC1 [PRUCALOPRIDE] | 0.71 | 0.75 | 0.6 |  | 0.86 |  |  | 0.24 |  |  |  | 0 | 0.1 |  |  |  | 0.99 |  |  | 0.98 | Growth Rate [1, 4]: 0.48; Growth Rate [1, 13]: 0.89; Growth Rate [2, 6]: 0.76; Growth Rate [2, 8]: 0.99 |
| CCCCC/C=C\C/C=C\C/C=C\C/C=C\CCCC(=O)OC(CO)CO [2-ARACHIDONOYLGLYCEROL] |  |  |  |  |  |  | 0.93 |  | 0.65 |  |  |  | 0.81 | 0.94 |  | 0.72 | 0.51 | 0.64 | 0.67 |  | Growth Rate [2, 8]: 0.9; Growth Rate [2, 12]: 0.99; Growth Rate [3, 10]: 0.69; Growth Rate [3, 12]: 0.75 |
| CO[C@H]1CNC[C@@H](OCC2CCC(F)(F)CC2)[C@@H]1Nc1ncc(-c2cncc(C)c2)c2cc(C)c(=O)[nH]c12 | 0.63 | 0.24 | 0.16 | 0.53 | 0.28 | 0.64 | 0.1 | -0.36 |  | 0.62 | 0.39 | 0.7 | 0.53 |  |  | 0.87 |  | 0.84 | 0.85 | 0.97 | Growth Rate [1, 4]: 0.72; Growth Rate [1, 13]: 0.95; Growth Rate [1, 12]: 0.73; Growth Rate [2, 8]: 0.98; Growth Rate [2, 12]: 1; Growth Rate [3, 13]: 0.51 |
| Cc1noc(C)c1-c1cnc2c(-c3ccc(C(=O)O)cc3)cn([C@@H](C)c3ccccn3)c2c1 [PLX-51107] | 0.13 | 0.81 |  | 0.99 |  |  |  | -0.01 | -0.06 | 0.72 | 0.5 | 0.73 | 0.96 |  |  |  |  | 0.88 | 0.6 | 0.96 | Growth Rate [1, 13]: 0.17; Growth Rate [2, 6]: 0.86 |
| CCCn1c(=O)c2[nH]c(C3CCCC3)nc2n(CCC)c1=O [1,3-DIPROPYL-8-CYCLOPENTYLXANTHINE [DPCPX]] | -0.31 |  | 0.03 |  | -0.16 |  | -0.1 | -0.53 | -1 |  |  |  |  | 0.57 | 0.79 | 0.84 |  | 0.81 | 0.72 | 0.95 | Growth Rate [1, 4]: 0.19; Growth Rate [1, 13]: 0.38; Growth Rate [3, 4]: 0.58 |
| O=C(Nc1cc(-c2cn[nH]c2)ccc1N1CCOCC1)c1ccc(-c2ccc3ncccc3c2)o1 |  |  | 0.82 | 0.89 | 0.43 | 0.89 | 0.3 | 0.53 |  | 0.9 | 0.6 | 0.57 | 0.7 | -0.01 | 0.26 | -0.14 | 0.02 | 0 | 0.15 | 0.39 | Growth Rate [1, 4]: 0.62; Growth Rate [1, 13]: -0.67; Growth Rate [1, 12]: 0.83; Growth Rate [2, 12]: 0.26; Growth Rate [3, 13]: 0.28; Growth Rate [3, 10]: 0.07; Growth Rate [3, 12]: 0.04 |
| COc1ccc2[nH]c(I)c(CCNC(C)=O)c2c1 [IODOMELATONIN] | 0.67 | 0.7 | 0.97 |  |  | 0.79 |  |  | -0.81 |  |  | 0.84 |  | 0.9 | 0.72 |  |  |  |  | 0.91 | Growth Rate [2, 6]: 0.81; Growth Rate [2, 8]: 0.99; Growth Rate [2, 12]: 0.91; Growth Rate [3, 13]: 0.55 |
| CC(C)Oc1ccc(-c2nc(-c3cccc4c3CC[C@@H]4NCCO)no2)cc1C#N [OZANIMOD] | 0.57 | 0.42 | 0.12 | -0.28 | 0.03 | -0.49 | -0.09 |  |  |  | 0.37 | 0.41 | 0.38 | -0.7 | -0.68 | -0.42 | -0.34 | -0.32 | -0.25 | 0.01 | Growth Rate [1, 12]: -0.43; Growth Rate [2, 6]: -0.16; Growth Rate [2, 8]: -0.05; Growth Rate [2, 12]: 0.04; Growth Rate [3, 10]: -0.35; Growth Rate [3, 12]: -0.29 |
